# Laboratory results: patent US20110039721A1, “METHOD FOR PREDICTION ABOUT CARCINOGENICITY OF SUBSTANCE IN RODENT” (Chemicals Evaluation and Research Institute, priority 2007, published 2011)
# Where two headings read alike, the source gives them in different places.
# Assays:
# [1] = cited from earlier work
# [2] = system: mRNA expressed from the genes (A) to (D) in rat liver; assay: Behavior of genes (mRNA expression level, oligo-DNA microarray) in rat liver after 28-day oral administration; type: in vivo
# How it was run: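 Groups of four male F344 SPF rats aged 5 weeks are gavaged once a day for 28 days with test chemical in solvent or with solvent alone at equal volume. Total RNA comes from liver taken on day 28. Fold change of 1.5 or 1/1.5 versus control, directionally consistent, defines significance.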
# [3] = system: liver; settings: cited from earlier work
# [4] = system: rodent; settings: cited from earlier work
# [5] = gene group (A), Unigene No. Rn.167075
# [6] = gene group (C), Unigene No. Rn.120914
smiles,measurement,setting,value
"Cc1ccc(N)cc1Cl [TS080, 3-Chloro-p-toluidine]",Mutagenicity by Ames test,[1]; classification of the substance (M+/M−),M−
same,"Behavior of gene caused by administration of chemical substance, Gene No. 4846","[2]; gene group (A), Unigene No. Rn.144554",+
same,"Behavior of gene caused by administration of chemical substance, Gene No. 2026",[2]; [5],+
same,"Behavior of gene caused by administration of chemical substance, Gene No. 4218",[2]; [5],+
same,"Behavior of gene caused by administration of chemical substance, Gene No. 6182","[2]; gene group (A), Unigene No. Rn.5834",+
same,"Behavior of gene caused by administration of chemical substance, Gene No. 5600","[2]; gene group (A), Unigene No. Rn.9836",+
same,"Behavior of gene caused by administration of chemical substance, Gene No. 1494","[2]; gene group (B), Unigene No. Rn.1430",+
same,"Behavior of gene caused by administration of chemical substance, Gene No. 2045","[2]; gene group (B), Unigene No. Rn.19329",−
same,"Behavior of gene caused by administration of chemical substance, Gene No. 2203","[2]; gene group (B), Unigene No. Rn.21240",+
same,"Behavior of gene caused by administration of chemical substance, Gene No. 533","[2]; gene group (C), Unigene No. Rn.106184",+
same,"Behavior of gene caused by administration of chemical substance, Gene No. 725","[2]; gene group (C), Unigene No. Rn.108075",+
same,"Behavior of gene caused by administration of chemical substance, Gene No. 1163","[2]; gene group (C), Unigene No. Rn.11766",−
same,"Behavior of gene caused by administration of chemical substance, Gene No. 4973","[2]; gene group (C), Unigene No. Rn.118529",+
same,"Behavior of gene caused by administration of chemical substance, Gene No. 4095","[2]; gene group (C), Unigene No. Rn.119024",+
same,"Behavior of gene caused by administration of chemical substance, Gene No. 1334",[2]; [6],−
same,"Behavior of gene caused by administration of chemical substance, Gene No. 6620",[2]; [6],−
same,"Behavior of gene caused by administration of chemical substance, Gene No. 6303","[2]; gene group (C), Unigene No. Rn.123063",−
same,"Behavior of gene caused by administration of chemical substance, Gene No. 5878","[2]; gene group (C), Unigene No. Rn.143213",−
same,"Behavior of gene caused by administration of chemical substance, Gene No. 1131","[2]; gene group (C), Unigene No. Rn.144946",−
same,"Behavior of gene caused by administration of chemical substance, Gene No. 1562","[2]; gene group (C), Unigene No. Rn.14744",−
same,"Behavior of gene caused by administration of chemical substance, Gene No. 1741","[2]; gene group (C), Unigene No. Rn.1647",−
same,"Behavior of gene caused by administration of chemical substance, Gene No. 893","[2]; gene group (C), Unigene No. Rn.164817",+
same,"Behavior of gene caused by administration of chemical substance, Gene No. 6026","[2]; gene group (C), Unigene No. Rn.167685",−
same,"Behavior of gene caused by administration of chemical substance, Gene No. 154","[2]; gene group (C), Unigene No. Rn.185941",+
same,"Behavior of gene caused by administration of chemical substance, Gene No. 1993","[2]; gene group (C), Unigene No. Rn.18728",−
same,"Behavior of gene caused by administration of chemical substance, Gene No. 813","[2]; gene group (C), Unigene No. Rn.201760",+
same,"Behavior of gene caused by administration of chemical substance, Gene No. 2494","[2]; gene group (C), Unigene No. Rn.23969",−
same,"Behavior of gene caused by administration of chemical substance, Gene No. 2546","[2]; gene group (C), Unigene No. Rn.24561",+
same,"Behavior of gene caused by administration of chemical substance, Gene No. 3776","[2]; gene group (C), Unigene No. Rn.43232",−
same,"Behavior of gene caused by administration of chemical substance, Gene No. 3929","[2]; gene group (C), Unigene No. Rn.4620",−
same,"Behavior of gene caused by administration of chemical substance, Gene No. 1119","[2]; gene group (C), Unigene No. Rn.9757",−
same,"Behavior of gene caused by administration of chemical substance, Gene No. 6742","[2]; gene group (C), Unigene No. Rn.9779",−
same,"Behavior of gene caused by administration of chemical substance, Gene No. 5634","[2]; gene group (C), Unigene No. Rn.9862",−
same,"Behavior of gene caused by administration of chemical substance, Gene No. 5726","[2]; gene group (D), Unigene No. Rn.9939",+
same,Liver carcinogenicity,[3]; classification of the substance (Cr+/Cr−),Cr−
same,Carcinogenicity,[4]; classification of the substance (C+/C−),C−
"O=CCCCC=O [TS081, Glutaraldehyde]",Mutagenicity by Ames test,[1]; classification M+/M−,M+
same,Behavior of gene caused by administration of chemical substance,"[2]; Gene No. 154, Rn.185941, group (C)",−
same,Behavior of gene caused by administration of chemical substance,"[2]; Gene No. 533, Rn.106184, group (C)",+
same,Behavior of gene caused by administration of chemical substance,"[2]; Gene No. 725, Rn.108075, group (C)",−
same,Behavior of gene caused by administration of chemical substance,"[2]; Gene No. 813, Rn.201760, group (C)",−
same,Behavior of gene caused by administration of chemical substance,"[2]; Gene No. 893, Rn.164817, group (C)",−
same,Behavior of gene caused by administration of chemical substance,"[2]; Gene No. 1119, Rn.9757, group (C)",−
same,Behavior of gene caused by administration of chemical substance,"[2]; Gene No. 1131, Rn.144946, group (C)",−
same,Behavior of gene caused by administration of chemical substance,"[2]; Gene No. 1163, Rn.11766, group (C)",−
same,Behavior of gene caused by administration of chemical substance,"[2]; Gene No. 1334, Rn.120914, group (C)",−
same,Behavior of gene caused by administration of chemical substance,"[2]; Gene No. 1494, Rn.1430, group (B)",−
same,Behavior of gene caused by administration of chemical substance,"[2]; Gene No. 1562, Rn.14744, group (C)",−
same,Behavior of gene caused by administration of chemical substance,"[2]; Gene No. 1741, Rn.1647, group (C)",−
same,Behavior of gene caused by administration of chemical substance,"[2]; Gene No. 1993, Rn.18728, group (C)",−
same,Behavior of gene caused by administration of chemical substance,"[2]; Gene No. 2026, Rn.167075, group (A)",−
same,Behavior of gene caused by administration of chemical substance,"[2]; Gene No. 2045, Rn.19329, group (B)",−
same,Behavior of gene caused by administration of chemical substance,"[2]; Gene No. 2203, Rn.21240, group (B)",−
same,Behavior of gene caused by administration of chemical substance,"[2]; Gene No. 2494, Rn.23969, group (C)",−
same,Behavior of gene caused by administration of chemical substance,"[2]; Gene No. 2546, Rn.24561, group (C)",−
same,Behavior of gene caused by administration of chemical substance,"[2]; Gene No. 3776, Rn.43232, group (C)",−
same,Behavior of gene caused by administration of chemical substance,"[2]; Gene No. 3929, Rn.4620, group (C)",−
same,Behavior of gene caused by administration of chemical substance,"[2]; Gene No. 4095, Rn.119024, group (C)",−
same,Behavior of gene caused by administration of chemical substance,"[2]; Gene No. 4218, Rn.167075, group (A)",−
same,Behavior of gene caused by administration of chemical substance,"[2]; Gene No. 4846, Rn.144554, group (A)",−
same,Behavior of gene caused by administration of chemical substance,"[2]; Gene No. 4973, Rn.118529, group (C)",+
same,Behavior of gene caused by administration of chemical substance,"[2]; Gene No. 5600, Rn.9836, group (A)",−
same,Behavior of gene caused by administration of chemical substance,"[2]; Gene No. 5634, Rn.9862, group (C)",−
same,Behavior of gene caused by administration of chemical substance,"[2]; Gene No. 5726, Rn.9939, group (D)",−
same,Behavior of gene caused by administration of chemical substance,"[2]; Gene No. 5878, Rn.143213, group (C)",−
same,Behavior of gene caused by administration of chemical substance,"[2]; Gene No. 6026, Rn.167685, group (C)",−
same,Behavior of gene caused by administration of chemical substance,"[2]; Gene No. 6182, Rn.5834, group (A)",−
same,Behavior of gene caused by administration of chemical substance,"[2]; Gene No. 6303, Rn.123063, group (C)",−
same,Behavior of gene caused by administration of chemical substance,"[2]; Gene No. 6620, Rn.120914, group (C)",−
same,Behavior of gene caused by administration of chemical substance,"[2]; Gene No. 6742, Rn.9779, group (C)",+
same,Liver carcinogenicity,[3]; in vivo,Cr−
same,Carcinogenicity,[4]; classification C+/C−,C−
